Measurements as given in ChEMBL document CHEMBL1201862, “PubChem BioAssay data set” (2004).
“And” between values parts separate entries of the source, which are not always exact repeats. Equal entries are not always repeated.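 Following 48 hours of exposure in 96-well plates, responses at five concentrations were used to interpolate endpoints linearly. Here, GI50 denotes the concentration required for 50% inhibition of growth.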 The source made the active and inactive calls. Rule as the data show it: active = GI50 up to about 1.1 µM and inactive = higher.

What was measured:
Assay in all cases: NCI tumour cell line growth inhibition, 48 h
A549 = test system: A549
BT-549 = test system: BT-549
DMS-114 = test system: DMS-114
DMS-273 = test system: DMS-273
DU-145 = test system: DU-145
EKVX = test system: EKVX
HCT-116 = test system: HCT-116
HT-29 = test system: HT-29
Hs-578T = test system: Hs-578T
K562 = test system: K562
KM-20L2 = test system: KM-20L2
KM12 = test system: KM12
LOX IMVI = test system: LOX IMVI
LXFL 529 = test system: LXFL 529
M14 = test system: M14
MCF7 = test system: MCF7
MDA-MB-231 = test system: MDA-MB-231
MDA-MB-435 = test system: MDA-MB-435
MDA-N = test system: MDA-N
MOLT-4 = test system: MOLT-4
Malme-3M = test system: Malme-3M
NCI-H23 = test system: NCI-H23
NCI-H460 = test system: NCI-H460
NCI/ADR-RES = test system: NCI/ADR-RES
OVCAR-3 = test system: OVCAR-3
OVCAR-5 = test system: OVCAR-5
OVCAR-8 = test system: OVCAR-8
PC-3 = test system: PC-3
RPMI-8226 = test system: RPMI-8226
RXF 393 = test system: RXF 393
RXF 631 = test system: RXF 631
SF-268 = test system: SF-268
SK-MEL-2 = test system: SK-MEL-2
SNB-78 = test system: SNB-78
SR = test system: SR
SW-620 = test system: SW-620
T47D = test system: T47D
UACC-257 = test system: UACC-257
UACC-62 = test system: UACC-62
XF498 = test system: XF498
786-0 = test system: 786-0
A498 = test system: A498
ACHN = test system: ACHN
CAKI-1 = test system: CAKI-1
CCRF-CEM = test system: CCRF-CEM
COLO 205 = test system: COLO 205
DLD-1 = test system: DLD-1
HCC 2998 = test system: HCC 2998
HL-60 = test system: HL-60
HOP-62 = test system: HOP-62
HOP-92 = test system: HOP-92
IGROV-1 = test system: IGROV-1
M19-MEL = test system: M19-MEL
NCI-H226 = test system: NCI-H226
NCI-H522 = test system: NCI-H522
OVCAR-4 = test system: OVCAR-4
SF-539 = test system: SF-539
SK-MEL-28 = test system: SK-MEL-28
SK-OV-3 = test system: SK-OV-3
SN12C = test system: SN12C
SNB-75 = test system: SNB-75
UO-31 = test system: UO-31
HCT-15 = test system: HCT-15
SF-295 = test system: SF-295
SK-MEL-5 = test system: SK-MEL-5
SNB-19 = test system: SNB-19
TK-10 = test system: TK-10
U-251 = test system: U-251

Measured: GI50

CC(C)(O)/C=C/C(=O)[C@](C)(O)[C@H]1[C@H](O)C[C@@]2(C)[C@@H]3CC=C4[C@@H](C=C(O)C(=O)C4(C)C)[C@]3(C)C(=O)C[C@]12C [CUCURBITACIN I]
active: A549 493 nM and 271 nM | BT-549 0.0147 µM | DMS-273 243 nM and 218 nM | DU-145 < 0.01 µM | HCT-116 631 nM and 363 nM | HT-29 538 nM and 321 nM | Hs-578T 0.0485 µM | K562 841 nM and 504 nM | KM-20L2 482 nM and 318 nM | LOX IMVI 430 nM and 238 nM | LXFL 529 339 nM and 513 nM | M14 548 nM and 303 nM | MCF7 0.0245 µM | MDA-MB-231 0.0223 µM | MDA-MB-435 < 0.01 µM | MDA-N < 0.01 µM | Malme-3M 536 nM and 329 nM | NCI-H460 288 nM and 543 nM | NCI/ADR-RES 0.126 µM | OVCAR-3 395 nM and 783 nM | PC-3 0.0238 µM | RPMI-8226 281 nM and 318 nM | RXF 393 225 nM and 440 nM | RXF 631 372 nM and 536 nM | SF-268 475 nM and 251 nM | SK-MEL-2 442 nM and 237 nM | SNB-78 303 nM and 528 nM | SR 644 nM and 410 nM | SW-620 334 nM and 541 nM | T47D 0.104 µM | UACC-257 324 nM and 555 nM | UACC-62 805 nM and 607 nM | XF498 284 nM and 330 nM
inactive: KM12 1.9 µM and 1.12 µM | MOLT-4 1.88 µM and 1.61 µM | NCI-H23 2.38 µM and 1.33 µM | OVCAR-5 3.03 µM and 3.24 µM | OVCAR-8 1.3 µM and 2.13 µM
1.21 µM (inactive) and 698 nM (active): DMS-114
975 nM (active) and 1.27 µM (inactive): EKVX

Cc1cn(C2CC(N(C)C)C(CO)O2)c(=O)[nH]c1=O (centres undefined)
inactive: 786-0 > 100 µM | A498 > 100 µM | ACHN > 100 µM | CAKI-1 > 100 µM | CCRF-CEM > 100 µM | COLO 205 > 100 µM | DLD-1 > 100 µM | DMS-114 > 100 µM | DMS-273 > 100 µM | HCC 2998 > 100 µM | HCT-116 > 100 µM | HL-60 > 100 µM | HOP-62 > 100 µM | HOP-92 > 100 µM | IGROV-1 > 100 µM | K562 > 100 µM | LXFL 529 > 100 µM | M14 > 100 µM | M19-MEL > 100 µM | MOLT-4 > 100 µM | Malme-3M > 100 µM | NCI-H226 > 100 µM | NCI-H23 > 100 µM | NCI-H522 > 100 µM | OVCAR-4 > 100 µM | RPMI-8226 > 100 µM | RXF 631 > 100 µM | SF-268 > 100 µM | SF-539 > 100 µM | SK-MEL-28 > 100 µM | SK-MEL-2 > 100 µM | SK-OV-3 > 100 µM | SN12C > 100 µM | SNB-75 > 100 µM | SNB-78 > 100 µM | SR > 100 µM | UACC-62 > 100 µM | UO-31 > 100 µM | XF498 > 100 µM

O=C(c1ccc(Cl)cc1)c1ccc(OCCCCCCCCCCOc2ccc(C(=O)c3ccc(Cl)cc3)cc2)cc1
inactive: 786-0 > 100 µM | A498 > 100 µM | A549 > 100 µM | ACHN > 100 µM | CAKI-1 > 100 µM | CCRF-CEM > 100 µM | COLO 205 > 100 µM | DLD-1 > 100 µM | DMS-114 > 100 µM | DMS-273 > 100 µM | EKVX > 100 µM | HCC 2998 > 100 µM | HL-60 > 100 µM | HOP-62 > 100 µM | HOP-92 > 100 µM | HT-29 > 100 µM | IGROV-1 > 100 µM | K562 > 100 µM | KM-20L2 > 100 µM | KM12 > 100 µM | LOX IMVI > 100 µM | MOLT-4 > 100 µM | Malme-3M > 100 µM | NCI-H226 > 100 µM | NCI-H23 > 100 µM | NCI-H460 > 100 µM | NCI-H522 > 100 µM | OVCAR-3 > 100 µM | OVCAR-5 > 100 µM | OVCAR-8 > 100 µM | RPMI-8226 > 100 µM | RXF 393 > 100 µM | RXF 631 > 100 µM | SF-268 > 100 µM | SF-295 > 100 µM | SK-MEL-28 > 100 µM | SK-MEL-2 > 100 µM | SK-MEL-5 > 100 µM | SK-OV-3 > 100 µM | SN12C > 100 µM | SNB-19 > 100 µM | SNB-75 > 100 µM | SNB-78 > 100 µM | SW-620 > 100 µM | TK-10 > 100 µM | U-251 > 100 µM | UACC-257 > 100 µM | UACC-62 > 100 µM | UO-31 > 100 µM
> 100 µM: HCT-15
